Data reported in patent publication US20200305471A1, “METHODS AND COMPOSITIONS FOR IMPROVING THE TASTE OF DIET COLA SODAS AND OTHER BEVERAGES” (priority 2017, published 2020).

Legend:
[1] = chemicals of externally-applied lavender or tea tree oils; NIH 2018; cited from earlier work
[2] = Taste and/or aroma of Diet Coke after adding the substance (opinions of a few people); conditions: for taste and/or aroma of Diet Coke after adding the substance: substance alone added to about 220 ml (7.5 ounces) Diet Coke, room temperature
Text: For the embodiments disclosed herein, the signifier “aroma” is used in preference to its synonyms: smell and odor (which have negative connotations), and scent (which has perfume connotations). The signifier “taste” is mostly used herein, and to a lesser extent, “flavor”, which often signifies a specific “taste”.
Taste and aroma are not separate sensory experiences. […] This is attributed to the odor sensors in the nose being blocked. […] Thus, in many of the embodiments disclosed herein, the term “taste and/or aroma” is used.
For the exemplary embodiments that follow, the examples are performed with all liquids at room temperature. Sodas typically taste more flavorful at lower temperatures (sodas retain carbonation better at lower temperatures, which creates a better taste for many people). […] Tastes and/or aromas can also vary due to the use of soda container: glass, plastic or metal. There are many who think that cola sodas taste best when consumed from glass bottles. For many of the exemplary embodiments disclosed herein, Bodum Pavina Coffee Mugs, double-wall insulated glass mugs, 8 ounce size, are used.
One embodiment of an improved diet cola beverage product is understood with the following exemplary method and resulting exemplary article of manufacture. […] Any coca leaf extract with similar chemical components to ERC-A20 can be used—coca leaf extracts discussed below.

[3] = cited from earlier work
[4] = as sweet as sucrose; cited from earlier work

Row | SMILES | contribution to abnormal breast growth (potential hormone disruptor) [1] | taste and/or aroma of Diet Coke after adding the substance [2] | other results
1 | CC1=CCC(O)(C(C)C)CC1 (centres unmarked) [4-terpineol] | probably contributed to the abnormal breast growth | – | –
2 | CC1=CC=C(C(C)C)CC1 [alpha-terpinene] | probably contributed to the abnormal breast growth | – | –
3 | CC1=CCC(C(C)(C)O)CC1 (stereo not drawn) [alpha-terpineol] | probably contributed to the abnormal breast growth | more pleasant | –
4 | CCOC(=O)c1ccccc1 [ethyl benzoate] | – | more pleasant than that of untreated Diet Coke | solubility in water [3]: 500 micrograms/milliliter
5 | CC12CCC(CC1)C(C)(C)O2 [eucalyptol] | probably contributed to the abnormal breast growth | – | –
6 | CC1=CCC(C(C)C)=CC1 [gamma-terpinene] | – | while more pleasant as seen with adding alpha-terpineol, also has less of a “coca cola” taste | –
7 | C=C(C)[C@H]1CC=C(C)CC1 [limonene] | probably contributed to the abnormal breast growth | – | –
8 | C=CC(C)(O)CCC=C(C)C (centres unmarked) [linalool] | probably contributed to the abnormal breast growth | little-to-no change in the unpleasant | –
9 | C=CC(C)(CCC=C(C)C)OC(C)=O (centres unmarked) [linalyl acetate] | probably contributed to the abnormal breast growth | – | –
10 | COC(=O)c1ccccc1 [methyl benzoate] | – | improvement in Diet Coke taste similar to that of ethyl benzoate | –
11 | O=C([O-])c1ccccc1.[Na+] [sodium benzoate, reference compound] | – | No improvement | –
12 | O=S(=O)([O-])NC1CCCCC1.[Na+] [sodium cyclamate] | – | – | taste test preference, added to Diet Coke versus added to Coca-Cola Zero ([2]; some taste tests, Diet Coke (total 2 artificial sweeteners) vs Coca-Cola Zero (3 artificial sweeteners)): more preferred
13 | OC[C@@H](O)[C@@H](O)[C@H](O)[C@@H](O)CO [sorbitol] | – | – | sweetness relative to sucrose [4]: about 60%
14 | OC[C@H]1O[C@@](CO)(O[C@H]2O[C@H](CO)[C@@H](O)[C@H](O)[C@H]2O)[C@@H](O)[C@@H]1O [sugar] | – | – | taste of resulting beverage, sweetener added together with coca leaf extract ([2]; 220 ml Diet Coke + one teaspoon coca leaf extract + sweetener (about one bag Sugar Twin; one to two bags sugar)): more pleasant tasting Diet Coke soda
